For eight molecules, GI50 and TGI results are on record in PubChem BioAssay (NCI).

Common to all, as to assay: NCI-60 cell line screen, 48 h
Assay [1] deals with A498 renal.
For assay [2], the system named is A549 NSCLC.
The subject of assay [3] is HCT-15 colon.
Assay [4] has as its system KM12 colon.
In assay [5] the test system is NCI-H226 lung.
For assay [6], the system named is OVCAR-3 ovarian.
The test system of assay [7] is OVCAR-4 ovarian.
The test system of assay [8] is SF-268 CNS.
The test system of assay [9] is SN12C renal.
The subject of assay [10] is SW-620 colon.

Molecules are shown by their SMILES.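 Five concentrations, 48 hours, 96-well plates. Abbreviation: GI50, concentration required for 50% inhibition of growth. TGI marks complete inhibition of growth.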

Regarding `COc1ccc(Nc2nnc(-c3cc(O)ccc3O)s2)cc1`, the GI50 in assay [1] was over 50 µM; in [2] it was over 50 µM; in assay [3], over 50 µM; in assay [4], 32.6 µM; in assay [5], 11 µM; in assay [6] it was over 50 µM. The GI50 in assay [7] was 11.7 µM; in assay [8] it was 16.3 µM; in assay [9], 7.73 µM; in assay [10] it was 11.3 µM. For the same molecule, the TGI in assay [1] was over 50 µM; in [2] it was over 50 µM; in assay [3] it was over 50 µM; in [4], over 50 µM; in assay [5], 39.9 µM; in assay [6] it was over 50 µM. Also, the TGI in assay [7] is over 50 µM; in assay [8] it was over 50 µM; in [9] it was 19.2 µM; in assay [10] it was 22.8 µM.
As for `COc1cc(F)ccc1-c1ncnc(Nc2cccc(CS(C)(=N)=O)c2)n1` (stereo not given), the GI50 in assay [1] was 0.424 µM; in assay [2] it was 2.83 µM; in assay [3], 0.495 µM; in assay [4], 0.561 µM; in [5], 0.497 µM; in [6], 0.45 µM. The GI50 is 2.4 µM in [7], 0.707 µM in assay [8], 0.645 µM in assay [9] and 0.673 µM in assay [10]. In addition, the TGI in assay [1] is 1.66 µM; in assay [2], over 100 µM; in assay [3], over 100 µM; in [4], over 100 µM; in assay [5], over 100 µM; in assay [6], over 100 µM. For the same molecule, the TGI in assay [7], in assay [8], in assay [9] and in assay [10] was over 100 µM throughout.
As to `COc1ccc(-c2nn(-c3ccc(NC(=O)c4ccc(Cl)c(Cl)c4)cc3)cc2-c2ccncc2)cc1Cl`, the GI50 in assay [1] is 1.26 µM; in assay [2], over 12.4 µM; in assay [3], 1.09 µM; in assay [4], 1.59 µM; in [5], over 28.2 µM; in [6], over 20.3 µM. Moreover, the GI50 in [7] was over 14.1 µM; in assay [8], 4.25 µM; in [9] it was over 50 µM; in assay [10], 2.67 µM. For the same molecule, the TGI in assay [1] is 4.52 µM; in assay [2], over 50 µM; in assay [3], over 11 µM; in assay [4] it was over 50 µM; in assay [5] it was over 50 µM; in assay [6], over 50 µM. The TGI in [7], in [8], in [9] and in [10] was over 50 µM in each case.
For `O=C(Nc1ccncc1)C(=O)c1cn(S(=O)(=O)c2ccc(F)cc2)c2ccccc12`, the GI50 in [1] was 6.57 µM; in [2], 18.5 µM; in assay [3], 1.41 µM; in [4], 1.49 µM; in assay [5] it was 9.15 µM; in assay [6], 1.76 µM. The GI50 in [7] is 23.1 µM; in assay [8] it was 4.4 µM; in assay [9], 6.58 µM; in [10], 2.34 µM. The TGI in assay [1] is 63.2 µM; in [2] it was over 100 µM; in [3], over 100 µM; in [4], over 100 µM; in [5], over 100 µM; in assay [6] it was 7.6 µM. Besides, the TGI in assay [7], in assay [8], in assay [9] and in assay [10] was over 100 µM throughout.
As to `CCSc1ncnc2c1ncn2C1OC(CO)C(O)C1O` (stereo not given), the GI50 in assay [1] is 0.081 µM; in [2], 0.777 µM; in assay [3], 0.274 µM; in [4], 0.702 µM; in assay [5], 0.845 µM; in assay [6] it was 0.312 µM. In addition, the GI50 is 9.87 µM in assay [7], 1.02 µM in [8], 0.449 µM in assay [9] and 0.3 µM in [10]. The TGI is 1.92 µM in assay [1]; over 60.2 µM in assay [2]; over 100 µM in [3]; over 100 µM in assay [4]; over 100 µM in assay [5]; over 79.7 µM in assay [6]. The TGI in assay [7], in [8], in assay [9] and in [10] was over 100 µM each time.
On to `CN(C)CC[PH+](c1ccccc1)c1ccccc1.CN(C)CC[PH+](c1ccccc1)c1ccccc1.[Cl-].[Pd+2]`, for which the GI50 in [1], in assay [2], in assay [3], in [4], in [5] and in assay [6] was over 100 µM in each case. Moreover, the GI50 in [7], in [8], in [9] and in [10] was over 100 µM throughout. Besides, the TGI in assay [1], in assay [2], in [3], in assay [4], in assay [5] and in [6] was over 100 µM in each case. The TGI in assay [7], in assay [8], in [9] and in assay [10] was over 100 µM in each case.
`O=C1/C(=C/c2ccc(Cl)cc2)CCC1CCN1CCOCC1` (stereo not given): the TGI in assay [1], in [2], in assay [3], in [4], in assay [5] and in assay [6] was over 100 µM throughout. Further, the TGI in [7], in assay [8], in [9] and in assay [10] was over 100 µM in each case.
For the molecule `C#C[C@]1(O)CCC2C3CCc4cc(O)ccc4C3CC[C@@]21C` (stereo not given in full), the GI50 in assay [1] is 4.62 µM; in assay [2] it was 5.81 µM; in [3], 4.9 µM; in assay [4] it was 3.14 µM; in [5], 10.3 µM; in assay [6], 3.14 µM. Also, the GI50 in [7] was 6.76 µM; in assay [8] it was 5.23 µM; in [9], 6.41 µM; in assay [10], 3.8 µM. Besides, the TGI was 18.3 µM in [1]; over 100 µM in assay [2]; 73 µM in assay [3]; 13.9 µM in assay [4]; 30.8 µM in [5]; 8.43 µM in [6]. In addition, the TGI in [7] stood at 33.6 µM; in assay [8], 32.7 µM; in assay [9], 37.6 µM; in assay [10] it was 23.6 µM.
